Patent publication US10745365B2, “Luminogenic and fluorogenic compounds and methods to detect molecules or conditions” (Promega Corporation, priority 2005, dated 2020)

Legend:
[1] = test system: thermostable luciferase (Luc 146-1H2); assay: Light emission of thermostable luciferase with luciferin derivatives; type: biochemical
Procedure: This stock was used to produce enzyme stock solution having of 200 μg/ml enzyme solution in 1 mg/ml BSA, 200 mM HEPES buffer, pH 8.0, 20 mM MgCl2.
Solutions were made using a 1 M DTT solution, pH adjusted to 8.0, a 20 mM Coenzyme A solution in water (both described in examples above), a 100 mM ATP solution and water to create the following solutions: Sol′ A, 100 μM ATP; Sol′B, 100 μM ATP, 4 mM Coenzyme A; Sol′n C, 100 μM ATP, 400 mM DTT, and; Sol′n D, 100 μM ATP, 4 mM Coenzyme A and 400 mM DTT.
(§1) After assembly, the reactions were initiated by addition of 25 μl of the thermostable luciferase stock solution above and mixing the tube contents. A 50 μl sample was immediately removed and placed in a luminometer tube and the light read and the tube then replaced in a tube rack at room temperature. While the light reading was being taken, a 5 μl sample of the remaining reaction (which was kept at room temperature) was diluted into 495 μl of 50 mM BisTris, pH 6.5, 1 mg/ml BSA, 1 mM EDTA prechilled to 4° C. and the tube mixed and placed on ice. The light produced by the samples in the luminometer tubes were re-read at 20, 40, 60, 90 and 120 minutes post enzyme addition. Additional 5 μl samples were taken and diluted as above at 60 and 120 minutes post enzyme addition. Once all these readings and samples were taken, 50 μl of the diluted samples was mixed with 50 μl of Steady Glo in luminometer tubes, the tubes incubated 10 minutes […] then the light produced was read on a Turner TD 20/20 luminometer.

[2] = test system: thermostable luciferase (Luc 146-1H2); assay: Residual active thermostable luciferase after reaction with derivative (Steady Glo); type: biochemical
Procedure: as §1

## O=C(O)[C@H]1CSC(c2nc3ccc(OCCCl)cc3s2)=N1 [L’in-CEE]
[1]; substrate 6.25, +Co A & DTT, 0 min
  light reading of reaction sample: 77.35
[1]; substrate 6.25, +Co A & DTT, 20 min
  light reading of reaction sample: 7.958
[1]; substrate 6.25, +Co A & DTT, 40 min
  light reading of reaction sample: 3.656
[1]; substrate 6.25, +Co A & DTT, 60 min
  light reading of reaction sample: 2.312
[1]; substrate 6.25, +Co A & DTT, 90 min
  light reading of reaction sample: 1.414
[1]; substrate 6.25, +Co A & DTT, 120 min
  light reading of reaction sample: 1.134
[1]; substrate 6.25, +Co A, 0 min
  light reading of reaction sample: 1829
[1]; substrate 6.25, +Co A, 20 min
  light reading of reaction sample: 114
[1]; substrate 6.25, +Co A, 40 min
  light reading of reaction sample: 57.82
[1]; substrate 6.25, +Co A, 60 min
  light reading of reaction sample: 37.53
[1]; substrate 6.25, +Co A, 90 min
  light reading of reaction sample: 24.66
[1]; substrate 6.25, +Co A, 120 min
  light reading of reaction sample: 17.02
[1]; substrate 6.25, +DTT, 0 min
  light reading of reaction sample: 72.52
[1]; substrate 6.25, +DTT, 20 min
  light reading of reaction sample: 5.903
[1]; substrate 6.25, +DTT, 40 min
  light reading of reaction sample: 3.073
[1]; substrate 6.25, +DTT, 60 min
  light reading of reaction sample: 2.089
[1]; substrate 6.25, +DTT, 90 min
  light reading of reaction sample: 1.431
[1]; substrate 6.25, +DTT, 120 min
  light reading of reaction sample: 1.125
[1]; substrate 6.25, Alone, 0 min
  light reading of reaction sample: 121
[1]; substrate 6.25, Alone, 20 min
  light reading of reaction sample: 5.884
[1]; substrate 6.25, Alone, 40 min
  light reading of reaction sample: 3.316
[1]; substrate 6.25, Alone, 60 min
  light reading of reaction sample: 2.352
[1]; substrate 6.25, Alone, 90 min
  light reading of reaction sample: 1.569
[1]; substrate 6.25, Alone, 120 min
  light reading of reaction sample: 1.154
[1]; substrate 25, +Co A & DTT, 0 min
  light reading of reaction sample: 57.98
[1]; substrate 25, +Co A & DTT, 20 min
  light reading of reaction sample: 5.721
[1]; substrate 25, +Co A & DTT, 40 min
  light reading of reaction sample: 3.272
[1]; substrate 25, +Co A & DTT, 60 min
  light reading of reaction sample: 2.192
[1]; substrate 25, +Co A & DTT, 90 min
  light reading of reaction sample: 1.379
[1]; substrate 25, +Co A & DTT, 120 min
  light reading of reaction sample: 1.174
[1]; substrate 25, +Co A, 0 min
  light reading of reaction sample: 489.2
[1]; substrate 25, +Co A, 20 min
  light reading of reaction sample: 45.45
[1]; substrate 25, +Co A, 40 min
  light reading of reaction sample: 25.08
[1]; substrate 25, +Co A, 60 min
  light reading of reaction sample: 16.96
[1]; substrate 25, +Co A, 90 min
  light reading of reaction sample: 11.03
[1]; substrate 25, +Co A, 120 min
  light reading of reaction sample: 7.309
[1]; substrate 25, +DTT, 0 min
  light reading of reaction sample: 56.59
[1]; substrate 25, +DTT, 20 min
  light reading of reaction sample: 3.761
[1]; substrate 25, +DTT, 40 min
  light reading of reaction sample: 2.196
[1]; substrate 25, +DTT, 60 min
  light reading of reaction sample: 1.668
[1]; substrate 25, +DTT, 90 min
  light reading of reaction sample: 1.274
[1]; substrate 25, +DTT, 120 min
  light reading of reaction sample: 1.157
[1]; substrate 25, Alone, 0 min
  light reading of reaction sample: 59.87
[1]; substrate 25, Alone, 20 min
  light reading of reaction sample: 3.176
[1]; substrate 25, Alone, 40 min
  light reading of reaction sample: 1.919
[1]; substrate 25, Alone, 60 min
  light reading of reaction sample: 1.305
[1]; substrate 25, Alone, 90 min
  light reading of reaction sample: 1.178
[1]; substrate 25, Alone, 120 min
  light reading of reaction sample: 1.03
[1]; substrate 100, +Co A & DTT, 0 min
  light reading of reaction sample: 25.41
[1]; substrate 100, +Co A & DTT, 20 min
  light reading of reaction sample: 3.278
[1]; substrate 100, +Co A & DTT, 40 min
  light reading of reaction sample: 2.027
[1]; substrate 100, +Co A & DTT, 60 min
  light reading of reaction sample: 1.666
[1]; substrate 100, +Co A & DTT, 90 min
  light reading of reaction sample: 1.27
[1]; substrate 100, +Co A & DTT, 120 min
  light reading of reaction sample: 1.157
[1]; substrate 100, +Co A, 0 min
  light reading of reaction sample: 97.88
[1]; substrate 100, +Co A, 20 min
  light reading of reaction sample: 10.3
[1]; substrate 100, +Co A, 40 min
  light reading of reaction sample: 7.127
[1]; substrate 100, +Co A, 60 min
  light reading of reaction sample: 5.562
[1]; substrate 100, +Co A, 90 min
  light reading of reaction sample: 3.969
[1]; substrate 100, +Co A, 120 min
  light reading of reaction sample: 2.845
[1]; substrate 100, +DTT, 0 min
  light reading of reaction sample: 22.47
[1]; substrate 100, +DTT, 20 min
  light reading of reaction sample: 2.233
[1]; substrate 100, +DTT, 40 min
  light reading of reaction sample: 1.292
[1]; substrate 100, +DTT, 60 min
  light reading of reaction sample: 1.164
[1]; substrate 100, +DTT, 90 min
  light reading of reaction sample: 1.093
[1]; substrate 100, +DTT, 120 min
  light reading of reaction sample: 0.958
[1]; substrate 100, Alone, 0 min
  light reading of reaction sample: 20.46
[1]; substrate 100, Alone, 20 min
  light reading of reaction sample: 1.18
[1]; substrate 100, Alone, 40 min
  light reading of reaction sample: 0.868
[1]; substrate 100, Alone, 60 min
  light reading of reaction sample: 0.788
[1]; substrate 100, Alone, 90 min
  light reading of reaction sample: 0.627
[1]; substrate 100, Alone, 120 min
  light reading of reaction sample: 0.544
[2]; substrate 6.25, +Co A & DTT, sample taken 0 min
  light value of diluted reaction sample in Steady Glo: 1836
[2]; substrate 6.25, +Co A & DTT, sample taken 60 min
  light value of diluted reaction sample in Steady Glo: 1625
[2]; substrate 6.25, +Co A & DTT, sample taken 120 min
  light value of diluted reaction sample in Steady Glo: 1622
[2]; substrate 6.25, +Co A, sample taken 0 min
  light value of diluted reaction sample in Steady Glo: 1647
[2]; substrate 6.25, +Co A, sample taken 60 min
  light value of diluted reaction sample in Steady Glo: 976.8
[2]; substrate 6.25, +Co A, sample taken 120 min
  light value of diluted reaction sample in Steady Glo: 921.4
[2]; substrate 6.25, +DTT, sample taken 0 min
  light value of diluted reaction sample in Steady Glo: 1631
[2]; substrate 6.25, +DTT, sample taken 60 min
  light value of diluted reaction sample in Steady Glo: 1544
[2]; substrate 6.25, +DTT, sample taken 120 min
  light value of diluted reaction sample in Steady Glo: 1695
[2]; substrate 6.25, Alone, sample taken 0 min
  light value of diluted reaction sample in Steady Glo: 1402
[2]; substrate 6.25, Alone, sample taken 60 min
  light value of diluted reaction sample in Steady Glo: 1158
[2]; substrate 6.25, Alone, sample taken 120 min
  light value of diluted reaction sample in Steady Glo: 1073
[2]; substrate 25, +Co A & DTT, sample taken 0 min
  light value of diluted reaction sample in Steady Glo: 529.6
[2]; substrate 25, +Co A & DTT, sample taken 60 min
  light value of diluted reaction sample in Steady Glo: 1268
[2]; substrate 25, +Co A & DTT, sample taken 120 min
  light value of diluted reaction sample in Steady Glo: 1329
[2]; substrate 25, +Co A, sample taken 0 min
  light value of diluted reaction sample in Steady Glo: 1547
[2]; substrate 25, +Co A, sample taken 60 min
  light value of diluted reaction sample in Steady Glo: 777.5
[2]; substrate 25, +Co A, sample taken 120 min
  light value of diluted reaction sample in Steady Glo: 588.7
[2]; substrate 25, +DTT, sample taken 0 min
  light value of diluted reaction sample in Steady Glo: 1116
[2]; substrate 25, +DTT, sample taken 60 min
  light value of diluted reaction sample in Steady Glo: 1372
[2]; substrate 25, +DTT, sample taken 120 min
  light value of diluted reaction sample in Steady Glo: 1393
[2]; substrate 25, Alone, sample taken 0 min
  light value of diluted reaction sample in Steady Glo: 1345
[2]; substrate 25, Alone, sample taken 60 min
  light value of diluted reaction sample in Steady Glo: 973.4
[2]; substrate 25, Alone, sample taken 120 min
  light value of diluted reaction sample in Steady Glo: 860.3
[2]; substrate 100, +Co A & DTT, sample taken 0 min
  light value of diluted reaction sample in Steady Glo: 1745
[2]; substrate 100, +Co A & DTT, sample taken 60 min
  light value of diluted reaction sample in Steady Glo: 1319
[2]; substrate 100, +Co A & DTT, sample taken 120 min
  light value of diluted reaction sample in Steady Glo: 1343
[2]; substrate 100, +Co A, sample taken 0 min
  light value of diluted reaction sample in Steady Glo: 1127
[2]; substrate 100, +Co A, sample taken 60 min
  light value of diluted reaction sample in Steady Glo: 1055
[2]; substrate 100, +Co A, sample taken 120 min
  light value of diluted reaction sample in Steady Glo: 770.5
[2]; substrate 100, +DTT, sample taken 0 min
  light value of diluted reaction sample in Steady Glo: 1168
[2]; substrate 100, +DTT, sample taken 60 min
  light value of diluted reaction sample in Steady Glo: 501.5
[2]; substrate 100, +DTT, sample taken 120 min
  light value of diluted reaction sample in Steady Glo: 1478
[2]; substrate 100, Alone, sample taken 0 min
  light value of diluted reaction sample in Steady Glo: 1262
[2]; substrate 100, Alone, sample taken 60 min
  light value of diluted reaction sample in Steady Glo: 1203
[2]; substrate 100, Alone, sample taken 120 min
  light value of diluted reaction sample in Steady Glo: 1273
